# Measured values reported in article PMC4316792, “The dehydrogenase region of the NADPH oxidase component Nox2 acts as a protein disulfide isomerase (PDI) resembling PDIA3 with a role in the binding of the activator protein p67^phox” (Frontiers in Chemistry, 2015).
# Entries after “also recorded” stand apart in the source; their conditions may differ.
# Key:
# [1] = system: p67^phox(1–212); test: Effect of H2O2 on binding of p67phox(1–212) to Nox2 peptide 24; conditions: p67^phox(1–212) 1.5 μM, H2O2 10 mM required (0.1, 1, 10 mM tested), 2 h at 4°C; three experiments (Figure 2C)
# Experimental: This assay was used to assess the binding of p67^phox, in solution, to surface-attached synthetic Nox2 peptides. The procedure is a modified version of that described before (Morozov et al., [1998]; Dahan et al., [2002]). A brief description of the procedure is presented here. Synthetic Nox2 peptides, with a biotin tag at either the N- or C-terminus, were diluted to a concentration of 1 μM in PBS supplemented with 1% casein. 200 μl/well volumes were added to streptavidin-coated 96 well plates (BioBind Assembly, streptavidin-coated, Cat. No. 95029263, Thermo Fisher Scientific) and the plates incubated for 1 h at room temperature, the well contents being mixed on an orbital shaker. […] Bound peroxidase was quantified as described for the protein—protein binding assay.
# Figure 2 Treatment of p67^phox with N-ethylmaleimide (NEM), diamide, or H2O2 reverses the enhanced binding to Nox2 peptides containing an intramolecular disulfide bond. p67^phox(1–526) (1.5 μM) was incubated with NEM (0.1 mM) (A) or diamide (5 mM) (B), for 1 h at room temperature. p67^phox(1–212) (1.5 μM) was exposed to H2O2 (0.1, 1, or 10 mM) for 2 h at 4°C (C). […] The binding of treated and untreated p67^phox, in solution, to surface-attached Nox2 peptide 24 (357–371), with an N-terminal biotin tag, was measured. […]
# [2] = system: NADPH oxidase; parameters: method as in 8 sources, one per row (each row's own in cited_ref): ref Shpungin et al., [1989] ||| ref Bellavite et al., [1983]; Gabig and Lefker, [1984] ||| ref Pick et al., [1987] ||| ref Le Cabec and Maridonneau-Parini, [1995] ||| ref Nishida et al., [2005] ||| ...; conditions: cited from earlier work
# [3] = system: NADPH oxidase in intact phagocytes / neutrophils; parameters: method as in 3 sources, one per row (each row's own in cited_ref): ref Cohen and Chovaniec, [1978]; Yamashita et al., [1984] ||| ref Le Cabec and Maridonneau-Parini, [1995] ||| ref Tsunawaki et al., [2004]; conditions: cited from earlier work
# [4] = system: Nox4; parameters: method as in Serrander et al., [2007]; conditions: ref Serrander et al., [2007]; cited from earlier work
# [5] = target: NADPH oxidase (macrophage membrane liposomes, cytochrome b558) (Cavia porcellus, UniProt H0UXC6); type: biochemical, guinea pig
# [6] = system: PDIA3; parameters: method as in Jasuja et al., [2012]; conditions: ref Jasuja et al., [2012]; cited from earlier work
# [7] = system: PDIA1; conditions: ref Xu et al., [2012]; cited from earlier work
# Text: Isomerization by PDI also requires the b′ domain (Ellgaard and Ruddock, [2005]) and, thus, an interact ...
# [8] = system: PDI; parameters: method as in 2 sources, one per row (each row's own in cited_ref): ref Gallina et al., [2002]; Raturi et al., [2005] ||| ref Dickerhof et al., [2011]; conditions: ref Dickerhof et al., [2011]; cited from earlier work
molecule,measurement,setting,value
OO [H2O2],effect of H2O2 treatment of p67phox on binding to peptide 24 in the disulfide form,[1],markedly reduced
same,effect of exposure of phagocyte membranes on oxidase assembly,"[2]; without effect on the assembled complex, ref Ostuni et al., [2010]",inhibits oxidase assembly
CN1C(=O)[C@]23CC4=CC=C[C@H](O)[C@H]4N2C(=O)[C@@]1(CO)SS3 [gliotoxin],inhibition of oxidase activation in neutrophils,[3],inhibit oxidase activation
same,effect on Nox4,[4],did not affect
same,inhibition of oxidase activation in vitro,[2],marked inhibitory effect; also recorded: inhibit oxidase activation
same,"IC50, NADPH oxidase activation",[5],could not be determined
same,"inhibition of oxidase activation, in words",[5],poor inhibitor
C[C@@H]1O[C@@H](OC[C@H]2O[C@@H](Oc3c(-c4ccc(O)c(O)c4)oc4cc(O)cc(O)c4c3=O)[C@H](O)[C@@H](O)[C@@H]2O)[C@H](O)[C@H](O)[C@H]1O [rutin],inhibitory effect on PDIA3,[6],lack an inhibitory effect
same,"inhibition of oxidase activation, in words",[5],Lack of an inhibitory effect
PACMA 31,"inhibition of oxidase activation, in words",[5],Lack of an inhibitory effect
same,specificity for PDIA1,[7],exquisite specificity
bacitracin A,inhibitory potency on PDI,[8],low inhibitory potency
